Reference: the kinase profiling compilation of Christmann-Franck et al. (2016)
“And” between values parts separate entries of the source, which are not always exact repeats. Equal values may be shown once.

Legend:
Test in all cases: radiometric filter-binding kinase assay, Kinase HotSpot
Conditions in all cases: compound 0.5 µM; ATP 10 µM
STK11 (human) = STK11 (human) (UniProt Q15831)
AKT3 (human) = AKT3 (human) (UniProt Q9Y243)
CSK (human) = CSK (human) (UniProt P41240)
PRKD3 (human) = PRKD3 (human) (UniProt O94806)
ITK (human) = ITK (human) (UniProt Q08881)
CDK3 CCNE1 (human) = CDK3 CCNE1 (human) (UniProt Q00526+P24864)
TTK (human) = TTK (human) (UniProt P33981)
FES (human) = FES (human) (UniProt P07332)
PASK (human) = PASK (human) (UniProt Q96RG2)
EPHB1 (human) = EPHB1 (human) (UniProt P54762)
CAMK1G (human) = CAMK1G (human) (UniProt Q96NX5)
TXK (human) = TXK (human) (UniProt P42681)
FGFR4 (human) = FGFR4 (human) (UniProt P22455)
MKNK2 (human) = MKNK2 (human) (UniProt Q9HBH9)
ALK (human) = ALK (human) (UniProt Q9UM73)
MARK2 (human) = MARK2 (human) (UniProt Q7KZI7)
ADRBK2 (human) = ADRBK2 (human) (UniProt P35626)
FYN (human) = FYN (human) (UniProt P06241)
RPS6KA6 KD1 KD2 (human) = RPS6KA6 KD1 KD2 (human) (UniProt Q9UK32)
BRSK2 (human) = BRSK2 (human) (UniProt Q8IWQ3)
MAPK9 (human) = MAPK9 (human) (UniProt P45984)
NEK1 (human) = NEK1 (human) (UniProt Q96PY6)
SGK3 (human) = SGK3 (human) (UniProt Q96BR1)
CDK5 CDK5R1 p25 (human) = CDK5 CDK5R1 p25 (human) (UniProt Q00535+Q15078)
SRC (human) = SRC (human) (UniProt P12931)
EPHA7 (human) = EPHA7 (human) (UniProt Q15375)
JAK2 JH1 JH2 (human) = JAK2 JH1 JH2 (human) (UniProt O60674)
PLK3 (human) = PLK3 (human) (UniProt Q9H4B4)
CDC42BPA (human) = CDC42BPA (human) (UniProt Q5VT25)
DDR2 (human) = DDR2 (human) (UniProt Q16832)
GRK7 (human) = GRK7 (human) (UniProt Q8WTQ7)
TEC (human) = TEC (human) (UniProt P42680)
MAPK1 (human) = MAPK1 (human) (UniProt P28482)
CAMKK2 (human) = CAMKK2 (human) (UniProt Q96RR4)
DSTYK (human) = DSTYK (human) (UniProt Q6XUX3)
PRKCG (human) = PRKCG (human) (UniProt P05129)
INSRR (human) = INSRR (human) (UniProt P14616)
RPS6KA3 KD1 KD2 (human) = RPS6KA3 KD1 KD2 (human) (UniProt P51812)
LYN (human) = LYN (human) (UniProt P07948)
PAK1 (human) = PAK1 (human) (UniProt Q13153)
NEK7 (human) = NEK7 (human) (UniProt Q8TDX7)
FGFR1 (human) = FGFR1 (human) (UniProt P11362)

SGK3 (human), sequence (Q96BR1 whole entry, looked up): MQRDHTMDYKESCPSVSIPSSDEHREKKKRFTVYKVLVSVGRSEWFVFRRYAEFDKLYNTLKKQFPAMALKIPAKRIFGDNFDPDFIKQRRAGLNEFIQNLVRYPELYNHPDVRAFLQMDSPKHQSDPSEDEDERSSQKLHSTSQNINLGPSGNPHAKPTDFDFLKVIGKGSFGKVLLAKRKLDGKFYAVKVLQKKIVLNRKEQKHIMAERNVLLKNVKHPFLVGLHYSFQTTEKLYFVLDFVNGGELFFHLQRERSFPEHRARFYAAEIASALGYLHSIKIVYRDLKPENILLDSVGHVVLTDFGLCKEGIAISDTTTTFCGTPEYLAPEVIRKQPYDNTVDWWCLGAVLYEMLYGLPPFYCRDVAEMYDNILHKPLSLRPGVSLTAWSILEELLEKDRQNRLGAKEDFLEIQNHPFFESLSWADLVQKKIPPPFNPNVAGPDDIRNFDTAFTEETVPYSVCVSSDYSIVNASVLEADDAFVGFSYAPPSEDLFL
STK11 (human), sequence (Q15831 whole entry, looked up): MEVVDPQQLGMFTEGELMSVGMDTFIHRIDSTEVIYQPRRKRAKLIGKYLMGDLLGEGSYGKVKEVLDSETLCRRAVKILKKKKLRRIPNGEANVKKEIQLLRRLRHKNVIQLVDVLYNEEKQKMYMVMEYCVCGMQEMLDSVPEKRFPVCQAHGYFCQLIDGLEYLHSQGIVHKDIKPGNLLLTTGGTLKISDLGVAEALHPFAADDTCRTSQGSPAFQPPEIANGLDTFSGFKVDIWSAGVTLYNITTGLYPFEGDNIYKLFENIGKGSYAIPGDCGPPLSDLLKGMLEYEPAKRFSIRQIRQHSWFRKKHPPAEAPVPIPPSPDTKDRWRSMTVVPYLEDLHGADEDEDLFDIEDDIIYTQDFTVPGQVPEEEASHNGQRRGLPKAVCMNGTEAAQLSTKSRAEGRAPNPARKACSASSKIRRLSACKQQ
DSTYK (human), sequence (Q6XUX3 whole entry, looked up): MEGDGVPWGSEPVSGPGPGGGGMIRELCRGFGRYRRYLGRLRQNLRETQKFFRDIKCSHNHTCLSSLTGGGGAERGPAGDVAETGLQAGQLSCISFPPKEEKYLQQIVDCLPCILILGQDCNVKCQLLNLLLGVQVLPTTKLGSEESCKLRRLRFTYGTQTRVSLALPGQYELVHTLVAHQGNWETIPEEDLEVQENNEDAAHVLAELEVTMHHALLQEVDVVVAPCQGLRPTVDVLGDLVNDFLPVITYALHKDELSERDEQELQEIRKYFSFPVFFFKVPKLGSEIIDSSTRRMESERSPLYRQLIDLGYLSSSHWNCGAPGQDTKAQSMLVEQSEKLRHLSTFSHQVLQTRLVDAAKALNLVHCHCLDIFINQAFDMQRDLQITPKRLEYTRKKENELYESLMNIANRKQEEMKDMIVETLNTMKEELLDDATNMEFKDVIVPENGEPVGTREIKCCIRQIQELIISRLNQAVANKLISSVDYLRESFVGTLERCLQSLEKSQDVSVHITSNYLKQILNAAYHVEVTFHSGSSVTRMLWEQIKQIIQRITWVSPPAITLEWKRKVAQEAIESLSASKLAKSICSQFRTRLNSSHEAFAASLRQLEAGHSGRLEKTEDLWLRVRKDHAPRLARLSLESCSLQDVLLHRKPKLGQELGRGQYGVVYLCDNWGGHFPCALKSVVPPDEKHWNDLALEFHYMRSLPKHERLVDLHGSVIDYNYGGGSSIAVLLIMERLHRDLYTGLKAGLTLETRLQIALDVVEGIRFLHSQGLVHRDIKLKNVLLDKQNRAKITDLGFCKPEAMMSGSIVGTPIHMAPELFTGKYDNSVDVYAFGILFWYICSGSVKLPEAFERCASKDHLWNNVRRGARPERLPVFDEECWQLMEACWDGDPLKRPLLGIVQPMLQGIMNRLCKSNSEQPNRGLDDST
TTK (human), sequence (P33981 whole entry, looked up): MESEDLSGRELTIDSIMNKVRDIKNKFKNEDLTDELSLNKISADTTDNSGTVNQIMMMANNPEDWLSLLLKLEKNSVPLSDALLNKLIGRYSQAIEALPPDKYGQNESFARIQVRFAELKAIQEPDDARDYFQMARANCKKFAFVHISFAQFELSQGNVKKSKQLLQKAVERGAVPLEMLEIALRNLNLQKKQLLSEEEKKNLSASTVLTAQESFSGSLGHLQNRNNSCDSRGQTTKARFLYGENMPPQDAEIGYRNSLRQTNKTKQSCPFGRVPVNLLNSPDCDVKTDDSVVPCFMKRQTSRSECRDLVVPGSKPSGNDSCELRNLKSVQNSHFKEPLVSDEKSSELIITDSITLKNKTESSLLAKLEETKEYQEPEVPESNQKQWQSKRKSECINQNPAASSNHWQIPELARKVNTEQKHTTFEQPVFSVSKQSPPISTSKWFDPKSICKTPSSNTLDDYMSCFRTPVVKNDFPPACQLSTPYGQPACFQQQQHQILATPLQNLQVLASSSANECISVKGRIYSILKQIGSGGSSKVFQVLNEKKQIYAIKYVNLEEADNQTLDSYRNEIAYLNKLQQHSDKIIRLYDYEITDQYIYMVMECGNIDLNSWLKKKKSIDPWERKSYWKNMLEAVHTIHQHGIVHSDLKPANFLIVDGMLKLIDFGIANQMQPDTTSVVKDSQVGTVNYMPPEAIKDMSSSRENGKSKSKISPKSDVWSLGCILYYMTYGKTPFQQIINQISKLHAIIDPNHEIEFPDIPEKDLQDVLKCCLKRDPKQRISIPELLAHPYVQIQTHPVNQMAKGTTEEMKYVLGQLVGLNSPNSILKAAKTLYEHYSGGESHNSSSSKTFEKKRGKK
TEC (human), sequence (P42680 whole entry, looked up): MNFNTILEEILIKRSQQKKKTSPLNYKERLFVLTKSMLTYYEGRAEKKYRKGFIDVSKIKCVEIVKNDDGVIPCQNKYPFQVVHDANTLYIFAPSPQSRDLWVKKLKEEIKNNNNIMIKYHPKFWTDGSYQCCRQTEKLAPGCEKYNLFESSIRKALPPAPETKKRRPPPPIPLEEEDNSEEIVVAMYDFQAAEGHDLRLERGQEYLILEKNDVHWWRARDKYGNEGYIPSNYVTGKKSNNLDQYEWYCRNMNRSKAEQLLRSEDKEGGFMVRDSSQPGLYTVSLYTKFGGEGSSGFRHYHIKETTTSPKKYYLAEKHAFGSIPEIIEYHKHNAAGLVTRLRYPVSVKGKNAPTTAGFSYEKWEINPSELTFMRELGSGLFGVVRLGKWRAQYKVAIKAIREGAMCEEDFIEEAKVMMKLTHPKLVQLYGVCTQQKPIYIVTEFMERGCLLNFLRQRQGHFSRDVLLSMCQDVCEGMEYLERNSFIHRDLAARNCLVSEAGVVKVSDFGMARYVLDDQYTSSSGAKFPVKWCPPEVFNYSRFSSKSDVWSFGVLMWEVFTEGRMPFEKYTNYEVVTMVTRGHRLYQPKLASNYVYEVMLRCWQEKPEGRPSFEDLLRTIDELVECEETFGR
CDK3 CCNE1 (human), sequence (P24864 whole entry, looked up): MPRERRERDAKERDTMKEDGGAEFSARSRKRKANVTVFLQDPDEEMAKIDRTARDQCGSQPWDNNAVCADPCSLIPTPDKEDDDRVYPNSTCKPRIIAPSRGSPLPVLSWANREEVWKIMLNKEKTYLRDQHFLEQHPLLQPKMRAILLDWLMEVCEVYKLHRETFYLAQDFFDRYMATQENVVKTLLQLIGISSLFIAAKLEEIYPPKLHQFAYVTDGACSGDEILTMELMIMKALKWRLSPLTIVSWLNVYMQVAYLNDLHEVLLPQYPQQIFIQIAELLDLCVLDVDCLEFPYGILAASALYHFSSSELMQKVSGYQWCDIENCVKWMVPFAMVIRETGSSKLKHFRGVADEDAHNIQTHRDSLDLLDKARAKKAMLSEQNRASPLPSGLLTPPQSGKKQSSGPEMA
CDK3 CCNE1 (human), sequence (Q00526 whole entry, looked up): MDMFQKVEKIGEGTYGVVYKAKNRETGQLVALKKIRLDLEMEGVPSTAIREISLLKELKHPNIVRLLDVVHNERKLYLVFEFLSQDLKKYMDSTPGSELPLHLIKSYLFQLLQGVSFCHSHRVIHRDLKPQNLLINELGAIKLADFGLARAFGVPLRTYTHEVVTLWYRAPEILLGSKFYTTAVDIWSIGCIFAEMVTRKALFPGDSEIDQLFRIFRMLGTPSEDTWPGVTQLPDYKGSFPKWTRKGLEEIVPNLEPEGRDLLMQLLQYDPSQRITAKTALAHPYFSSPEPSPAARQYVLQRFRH
LYN (human), sequence (P07948 whole entry, looked up): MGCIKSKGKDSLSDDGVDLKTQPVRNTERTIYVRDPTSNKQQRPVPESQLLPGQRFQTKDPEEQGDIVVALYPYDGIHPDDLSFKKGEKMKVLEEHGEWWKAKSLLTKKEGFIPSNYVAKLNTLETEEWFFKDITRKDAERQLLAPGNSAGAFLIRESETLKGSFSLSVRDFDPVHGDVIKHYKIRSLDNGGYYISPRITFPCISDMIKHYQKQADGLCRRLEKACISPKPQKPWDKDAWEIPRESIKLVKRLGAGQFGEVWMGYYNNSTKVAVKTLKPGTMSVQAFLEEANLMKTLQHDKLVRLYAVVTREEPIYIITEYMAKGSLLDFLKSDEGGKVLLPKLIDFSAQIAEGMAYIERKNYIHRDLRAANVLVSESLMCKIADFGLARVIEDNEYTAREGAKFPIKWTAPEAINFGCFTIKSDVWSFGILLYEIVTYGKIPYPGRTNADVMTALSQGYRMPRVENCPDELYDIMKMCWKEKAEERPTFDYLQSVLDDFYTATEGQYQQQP
MAPK9 (human), sequence (P45984 whole entry, looked up): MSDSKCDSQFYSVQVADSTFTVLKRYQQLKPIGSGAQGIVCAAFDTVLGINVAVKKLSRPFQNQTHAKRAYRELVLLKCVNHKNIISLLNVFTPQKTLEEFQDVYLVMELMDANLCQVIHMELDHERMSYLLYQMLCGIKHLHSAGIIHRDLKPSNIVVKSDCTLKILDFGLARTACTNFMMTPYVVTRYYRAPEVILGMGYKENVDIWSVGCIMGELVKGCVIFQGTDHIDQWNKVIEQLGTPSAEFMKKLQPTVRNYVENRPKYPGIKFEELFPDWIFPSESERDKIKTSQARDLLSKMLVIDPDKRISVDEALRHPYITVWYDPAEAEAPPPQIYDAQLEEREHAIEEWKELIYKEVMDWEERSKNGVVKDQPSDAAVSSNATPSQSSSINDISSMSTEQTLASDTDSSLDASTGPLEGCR

Compound	residual activity (STK11 (human)) [%]	residual activity (AKT3 (human)) [%]	residual activity (CSK (human)) [%]	residual activity (PRKD3 (human)) [%]	residual activity (ITK (human)) [%]	residual activity (CDK3 CCNE1 (human)) [%]	residual activity (TTK (human)) [%]	residual activity (PASK (human)) [%]	residual activity (EPHB1 (human)) [%]	residual activity (CAMK1G (human)) [%]	residual activity (TXK (human)) [%]	residual activity (FGFR4 (human)) [%]	residual activity (MKNK2 (human)) [%]	residual activity (ALK (human)) [%]	residual activity (MARK2 (human)) [%]	residual activity (ADRBK2 (human)) [%]	residual activity (FYN (human)) [%]	residual activity (RPS6KA6 KD1 KD2 (human)) [%]	residual activity (BRSK2 (human)) [%]	residual activity (MAPK9 (human)) [%]	other results
CCN1/C(=C/C(C)=O)Sc2ccc(OC)cc21	86.6	96.1	104	62.5	102	91.5	88.7	72.8	90.6	101	100	92.3	93.8	105	89.5	82.9	99.1	89	89.5	101	residual activity (FES (human)): 101%; residual activity (NEK1 (human)): 90.1%; residual activity (SGK3 (human)): 93.4%; residual activity (CDK5 CDK5R1 p25 (human)): 87.9%; residual activity (SRC (human)): 94.4%; residual activity (EPHA7 (human)): 95.8%; residual activity (JAK2 JH1 JH2 (human)): 97.1%; residual activity (PLK3 (human)): 99.4%; residual activity (CDC42BPA (human)): 85%; residual activity (DDR2 (human)): 96.6%; residual activity (GRK7 (human)): 104%; residual activity (TEC (human)): 116%; residual activity (MAPK1 (human)): 97.1%; residual activity (CAMKK2 (human)): 95.5%; residual activity (DSTYK (human)): 90.6%; residual activity (PRKCG (human)): 75.4%; residual activity (INSRR (human)): 91.6%; residual activity (RPS6KA3 KD1 KD2 (human)): 102%; residual activity (LYN (human)): 101% and 94.4%; residual activity (PAK1 (human)): 92.9%
CC(C)(C)c1nc2c3ccc(F)cc3c3c(=O)[nH]ccc3c2[nH]1	58.4	76.4	114	10.8	86	92.1	65.3	83.2	94.9	95.3	77.1	96.5	62	20	41.5	104	52.3	33.9	21.4	31.1	residual activity (NEK7 (human)): 76.5%; residual activity (FES (human)): 78%; residual activity (NEK1 (human)): 49%; residual activity (SGK3 (human)): 96.6%; residual activity (SRC (human)): 93.4%; residual activity (EPHA7 (human)): 96%; residual activity (JAK2 JH1 JH2 (human)): 1.37%; residual activity (PLK3 (human)): 11%; residual activity (CDC42BPA (human)): 95.7%; residual activity (FGFR1 (human)): 75.8%; residual activity (GRK7 (human)): 60.5%; residual activity (TEC (human)): 106%; residual activity (MAPK1 (human)): 96.1%; residual activity (CAMKK2 (human)): 69.4%; residual activity (DSTYK (human)): 62%; residual activity (PRKCG (human)): 79.9%; residual activity (INSRR (human)): 75.2%; residual activity (LYN (human)): 101% and 95.9%; residual activity (PAK1 (human)): 82.1%
COc1cc2ncnc(Nc3ccc(F)c(Cl)c3)c2cc1OCCCN1CCOCC1	106	84.6	95.4	76.3	99.9	95	96.3	97.9	94.8	103	83.2	92.4	54.1	98.8	119	97.9	92.2	95.2	103	95.5	residual activity (NEK7 (human)): 96.9%; residual activity (NEK1 (human)): 90.4%; residual activity (SGK3 (human)): 98.3%; residual activity (CDK5 CDK5R1 p25 (human)): 95.4%; residual activity (EPHA7 (human)): 74.3%; residual activity (JAK2 JH1 JH2 (human)): 99.8%; residual activity (PLK3 (human)): 103%; residual activity (CDC42BPA (human)): 87.8%; residual activity (DDR2 (human)): 117%; residual activity (FGFR1 (human)): 96.4%; residual activity (GRK7 (human)): 96.2%; residual activity (TEC (human)): 104%; residual activity (MAPK1 (human)): 103%; residual activity (CAMKK2 (human)): 103%; residual activity (DSTYK (human)): 101%; residual activity (PRKCG (human)): 84.2%; residual activity (INSRR (human)): 112%; residual activity (RPS6KA3 KD1 KD2 (human)): 100%; residual activity (LYN (human)): 57.1% and 67.8%; residual activity (PAK1 (human)): 104%
